Literature values as cited in patent US20140171372A1, “Treatments for Alzheimer's disease” (priority 2012, published 2014).

Columns and labels:
[1] = tested on: animal models
[2] = tested on: cultured cells
[3] = treatment of spinal injury, Parkinson disease and AD
[4] = radiolabeled, injected systemically into animals
[5] = tested on: AD patients; details: intracerebroventricular injection, limited number of AD patients
[6] = tested on: patients

Compound	neuroprotective effect in animal models [1]	neuroprotective effect in cultured cells [2]	protective effects relative to GM1 ([2]; cultured cells and animal models, compared with GM1)	tolerability in Human [3]	distribution after systemic injection [4]	clinical improvement in AD patients [5]	outcome of clinical trial in AD [6]
CCCCCCCCCCCCC/C=C/C(O)C(COC1OC(CO)C(OC2OC(CO)C(OC3OC(CO)C(O)C(OC4OC(CO)C(O)C(O)C4O)C3NC(C)=O)C(OC3(C(=O)O)CC(O)C(NC(C)=O)C(C(O)C(O)CO)O3)C2O)C(O)C1O)NC(=O)C(Cl)Cl (stereo not drawn) [LIGA20]	neuroprotective	neuroprotective	more potent protective effects than GM1				
GM1	neuroprotective	neuroprotective		well tolerated	reach neuronal synapses and neuromuscular junctions	some degree of improvement	
Solanezumab							failed
